Columns and labels:
[1] = system: Sprague-Dawley rats with permanent focal cerebral ischemia by occlusion of middle cerebral artery; assay: Rat model with permanent focal cerebral ischemia by occlusion of middle cerebral artery, infarct area and volume; type: in vivo; conditions: 20 mg/kg subcutaneously at 1 hour before and 2 and 6 hours after surgery
Excerpt: To verify excellent preventive and therapeutic effects of LPA as an effective component of the pharmaceutical composition according to the present invention on stroke, the test using rat models induced with permanent focal cerebral ischemia by occlusion of middle cerebral artery, designed as follows, was undertaken.
Rat Model Induced with Permanent Focal Cerebral Ischemia by Occulusion of Middle Cerebral Artery
12 male Sprague-Dawley rats weighing about 250 to 269 g, were anaesthetized through inhalation of a mixed solution of 70% […] and 30% oxygen gas, the solution containing 2% isoflurane (Choongwae Pharma Corp., Korea), and then subjected to a slightly modified Nagasawa and Kogure's method (Nagasawa H and Kogure K (1989) Correlation between cerebral blood flow and histologic changes in a new rat model of middle cerebral artery occlusion. Stroke 20: 1037-1043), leading to occlusion of their right middle cerebral artery. Specifically, rats were anaesthetized, and then their cervix was incised along by the middle line of their neck. Then, after separately ligating their right common carotid artery and their external carotid artery carefully so as not to cause damage to their vagus nerve, the junction of their internal carotid artery were slightly cut and then a 17 mm long silicon rubber cylinder was carefully inserted thereinto, followed by ligating the internal carotid artery on the inserted cylinder. […]
At 24 hours after surgery, the rats of the test group and the control group were decapitated, and their brains were rapidly extracted, followed by washing with a cold saline solution. […] After the brain sections stained with TTC were fixed with 10% phosphate-buffered formalin, the area of cerebral infarcts on the posterior side of each section, which was visualized as an area of unstained tissue, was determined separately for cortex and striatum, by using an image analyzer.
In order to correct a change in the area of cerebral infarcts due to cerebral edema, the area of cerebral infarcts on each section was determined by subtracting the […] area in the right hemisphere with occluded middle cerebral artery from the area of the left hemisphere with unoccluded middle cerebral artery. Total areas of cerebral infarcts, obtained by summing the areas of infarcts in cortex and striatum that were measured at each brain section, were averaged, and the results were shown in FIG. 1. […]

[2] = system: ICR mice with sepsis induced by cecal ligation and puncture; assay: Cecal ligation and puncture (CLP) model test, survival in sepsis; type: in vivo; conditions: 5 ICR mice; for 48-hour survival rate (%) (Mice survived/All mice): control 0% (0/5); for 24-hour survival rate (%) (Mice survived/All mice): control 20% (1/5)
Excerpt: Cecal Ligation and Puncture (CLP) Model Test
To verify excellent preventive and therapeutic effects of LPA as an effective ingredient of the pharmaceutical composition according to the present invention on sepsis, this test using CLP model animals in which sepsis was caused by inducing peritonitis by cecal ligation and puncture was undertaken.
After anesthetizing 15 ICR mice (weighing about 25 to 30 g; availably from MJ Ltd.) with pentobarbital, a right region of their abdomen was excised in 1 cm length to expose cecum, followed by ligating the lower area of ileocecal valve, making six punctures on the cecum with a 21 gauge needle and then suturing the abdomen, thereby inducing sepsis with the model mice.
At 2 and 4 hours after suturing, LPA(oleoyl-sn-glycerol-3-phosphate; Sigma Co.) dissolved in 10% DMSO solution was intraperitoneally administered to 5 ICR mice at a dose of about 10 mg/kg (Group A) and to another 5 ICR mice at a dose of about 50 mg/kg (Group B), and only a 10% DMSO solution was intraperitoneally administered to the other 5 ICR mice (Control group). The survival rates of ICR mice in groups A and B and control group were investigated in course of time.

[3] = 24 hours after surgery, mean±standard deviation, 4 test rats, p<0.001
[4] = Group A: about 10 mg/kg intraperitoneally at 2 and 4 hours after suturing
[5] = Group B: about 50 mg/kg intraperitoneally at 2 and 4 hours after suturing

For oleoyl-sn-glycerol-3-phosphate [LPA], the “reduction of the infarcted volume in cortex compared with control group rats” value [1, 3] was 44.6±3.6%, the “reduction of the infarcted volume in striatum compared with control group rats” value [1, 3] was 55.3±21.0% and the “reduction of total infarcted volume compared with control group rats” value [1, 3] was 47.8±7.1%. The “total area of infarcts (cortex and striatum) compared to control group rats” value ([1]; measured 24 hours after surgery, FIG. 1) was “noticeable reduction in total area of infarcts”, the “48-hour survival rate (%) (Mice survived/All mice)” value [2, 4] was 40% (2/5) and the “24-hour survival rate (%) (Mice survived/All mice)” value [2, 4] was 60% (3/5). For the same substance, the “48-hour survival rate (%) (Mice survived/All mice)” value [2, 5] was 40% (2/5) and the “24-hour survival rate (%) (Mice survived/All mice)” value [2, 5] was 60% (3/5).

Source: patent US20040176323A1, “Pharmaceutical composition comprising lysophophatidic acid” (priority 2001, published 2004)
